Experimental data from paper PMC6803038 (Angewandte Chemie (International ed. in English), 2019).
Where no end group is shown, it is not given here. [ ]: non-standard residue; d: D form. Nle = CCCC[C@H](N)C(=O)O

Key:
TEV protease = TEV protease (Tobacco etch virus, UniProt P04517); experiment: Fluorescence polarization binding of 5-FAM-conjugated peptides to TEV protease; details: cyclic vs linear counterpart
[1] = physiological conditions; cited from earlier work
HDAC8 = biological target: T1, HDAC8 (UniProt Q9BY41 1-377); experiment: fluorescence polarisation
T1 sequence (looked up): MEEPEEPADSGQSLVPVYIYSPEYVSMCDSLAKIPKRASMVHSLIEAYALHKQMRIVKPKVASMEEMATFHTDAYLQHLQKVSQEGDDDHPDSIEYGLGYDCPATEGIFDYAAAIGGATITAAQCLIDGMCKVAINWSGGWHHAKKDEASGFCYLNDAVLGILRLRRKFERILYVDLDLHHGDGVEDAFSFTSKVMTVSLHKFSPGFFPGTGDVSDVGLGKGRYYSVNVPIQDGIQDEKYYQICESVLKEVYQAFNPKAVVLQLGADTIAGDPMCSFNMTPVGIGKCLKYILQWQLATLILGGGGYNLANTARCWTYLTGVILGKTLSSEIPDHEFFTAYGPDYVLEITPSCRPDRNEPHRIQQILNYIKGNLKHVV

Chain of TEV protease (P04517 2038-2279): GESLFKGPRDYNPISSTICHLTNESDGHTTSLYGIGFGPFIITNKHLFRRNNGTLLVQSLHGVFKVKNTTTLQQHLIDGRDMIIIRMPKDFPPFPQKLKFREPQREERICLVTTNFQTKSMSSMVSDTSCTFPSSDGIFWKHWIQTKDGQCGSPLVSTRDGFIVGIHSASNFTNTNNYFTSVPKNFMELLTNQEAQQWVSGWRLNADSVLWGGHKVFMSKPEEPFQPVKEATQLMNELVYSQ

Molecule | better binding of cyclic peptide than its linear counterpart (TEV protease) [fold] | Kd (HDAC8) [µM] | other results
CC[C@H](C)[C@@H]1NC(=O)[C@H](CC(C)C)NC(=O)[C@H](Cc2ccc(O)cc2)NC(=O)[C@H](CC(=O)O)NC(=O)[C@H](CCCNC(=N)N)NC(=O)[C@H](Cc2c[nH]c3ccccc23)NC(=O)[C@@H](N)CSCCC(=O)NCCCC[C@@H](C(=O)O)NC1=O [CycTev1, CWRDYLIX] | > 6 |  | 
C=CC(=O)NCCCC[C@H](N)C(=O)O [AcrK, N^ε-acryloyl-lysine] |  |  | second-order rate constant of reaction with a thiol [1]: 0.004 M⁻¹ s⁻¹
N=C(N)NCCC[C@@H]1NC(=O)[C@H](Cc2c[nH]cn2)NC(=O)[C@H](CO)NC(=O)[C@H](Cc2ccccc2)NC(=O)[C@H](Cc2c[nH]c3ccccc23)NC(=O)[C@H](CCC(N)=O)NC(=O)[C@@H](N)CSCCC(=O)NCCCC[C@@H](C(=O)O)NC1=O [CycTev2, CQWFSHRX] | > 6 |  | 
CQSLWMNK (also: 5-FAM conjugated, site not given here) [5-FAM-conjugated LinH8a] |  | > 50 | 
CQSLWMN[Nle] (also: 5-FAM conjugated, site not given here) [5-FAM-conjugated LinH8a’] |  | 31 ± 7 | 
